According to PMC6508677, “Identification of druggable small molecule antagonists of the Plasmodium falciparum hexose transporter PfHT and assessment of ligand access to the glucose permeation pathway via FLAG-mediated protein engineering” (PLoS ONE, 2019):
“And” between values parts separate entries of the source, which are not always exact repeats. Equal entries are not always repeated. Where two headings read alike, the source gives them in different places.

Assays:
[1] = target: T1, FTPfHT (Plasmodium falciparum, UniProt Q7KWJ5); assay: [3H]-D-glucose specific uptake into FTPfHT-containing liposomes; type: biochemical; conditions: for D-Glc - L-Glc Uptake, single experiments / D-Glc - L-Glc Uptake, Ave: liposomes; for D-Glc - L-Glc Uptake, Ave: average of Expt 1-3
T1 sequence (Q7KWJ5 1-504): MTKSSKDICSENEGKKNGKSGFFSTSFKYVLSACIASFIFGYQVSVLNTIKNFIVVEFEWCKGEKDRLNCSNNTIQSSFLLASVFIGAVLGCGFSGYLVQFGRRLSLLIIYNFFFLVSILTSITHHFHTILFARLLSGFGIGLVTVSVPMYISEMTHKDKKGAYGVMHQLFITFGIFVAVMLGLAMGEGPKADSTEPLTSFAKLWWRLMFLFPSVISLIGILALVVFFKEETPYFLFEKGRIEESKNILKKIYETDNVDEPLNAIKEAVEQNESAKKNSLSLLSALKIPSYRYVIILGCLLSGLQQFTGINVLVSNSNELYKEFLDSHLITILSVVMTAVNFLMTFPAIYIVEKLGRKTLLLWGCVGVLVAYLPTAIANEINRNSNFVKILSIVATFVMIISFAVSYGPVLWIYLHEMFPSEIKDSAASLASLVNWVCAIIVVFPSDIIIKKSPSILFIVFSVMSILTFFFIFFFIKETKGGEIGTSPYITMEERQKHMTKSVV
Text: SalI and NotI restriction sites were introduced to the 5’ and 3’ ends, respectively, of FTPfHT cDNA via PCR and then this construct was placed into the multiple cloning site of the pACMV-tetO vector [25]. Stable tetracycline-inducible HEK293S GnTI cell lines expressing FTPfHT were generated using the same protocol previously described for FTGLUT4 [26]. FTPfHT protein was solubilized from FTPfHT/HEK293S GnTI cell pellets with lauryl maltose neopentyl glycol (LMNG) detergent and purified using M2 anti-FLAG affinity gel (Sigma) as described in [27]. The FLAG tag was cleaved using tobacco etch virus (TEV) protease (plasmid purchased from Addgene, Cambridge, MA) at a ratio of 1:20 TEV/PfHT overnight at 4°C in the presence of 1 mM DTT. Based on SDS-PAGE and Blue BANDit protein stain (Amresco, Solon, OH), PfHT protein after FLAG elution was ~95% pure.
Liposomes containing PfHT were made according to Hresko et al.. Briefly, purified PfHT protein in LMNG micelles described above were mixed with Triton X-100 destabilized eggPC/POPA/POPE (70:15:15) large unilamellar vesicles (lipid to protein ratio of 100–125:1 (w/w)). By slowly removing the detergents with Amberlite XAD-2 beads (Supelco Analytical, Bellefonte, PA), PfHT protein spontaneously inserts into the liposomes. After removal of the beads, liposomes were collected by ultracentrifugation, resuspended in buffer, and flash-frozen with liquid nitrogen. Frozen liposomes containing purified PfHT protein were thawed at room temperature followed by extrusion through a 200-nm polycarbonate filter to create liposomes of uniform size. Uptake was started by adding [^3H]-D-glucose (1 μCi/ml, 200 μM cold D-glucose) to PfHT proteoliposomes at room temperature. Transport was stopped at different times with 5 ml of ice-cold quench buffer (50 mM potassium phosphate, 130 mM KCl, pH 7.4) and then filtered by vacuum on a 0.2-μm mixed cellulose ester filter (Advantec, Durham, NC). Filters were subsequently washed with an additional 10 ml of quench buffer. Scintillation fluid (Filter Count, PerkinElmer, Waltham, MA) was added to the filters and the radioactivity counted. [^3H]-L-glucose (1 μCi/ml, 200 μM cold L-glucose) was used to determine nonspecific transport. Specific uptake was calculated by subtracting nonspecific [^3H]-L-glucose from [^3H]-D-glucose uptake. Uptake was normalized to the amount of transporter per reaction, determined by analyzing aliquots of transporter-containing liposomes along with a BSA standard curve on an SDS-polyacrylamide gel stained with Blue Bandit protein stain and quantified using an Odyssey infrared imaging system (LI-COR Biosciences, Lincoln, NB). Data were fitted by least squares nonlinear regression analysis using GraphPad Prism 6.0.

[2] = target: T2, PfHT (Plasmodium falciparum, UniProt Q7KWJ5); assay: [3H]-D-glucose specific uptake into liposomes containing purified PfHT; type: biochemical; design: expressed in transfected cells; host or cells: HEK293 (HEK293-FLIP, native hGLUT1 knocked down by shRNA); conditions: for D-Glc - L-Glc Uptake, Ave / D-Glc - L-Glc Uptake, individual experiments: PfHT liposomes
T2 sequence (Q7KWJ5 1-504): T1 sequence (Q7KWJ5 1-504)

Cc1ccc(S(=O)(=O)CCNC(=O)c2c(-c3c(Cl)cccc3Cl)noc2C)cc1 [WU-1, 3-(2,6-dichlorophenyl)-5-methyl-N-[2-(4-methylbenzenesulfonyl)ethyl]-1,2-oxazole-4-carboxamide]
IC50 ([1]; D-Glc - L-Glc uptake in reconstituted liposomes, Expt 1, Expt 2, Expt 3, read-out: IC50, single experiments): 12.4 µM and 18.8 µM and 8.31 µM
IC50 ([1]; S3 Fig, read-out: IC50 for specific D-glucose uptake into FTPfHT liposomes): 13.2 ± 3.1 µM
D-Glc - L-Glc Uptake, single experiments ([1]; WU-1 0.001 µM, Expt 1, Expt 2, Expt 3): 36.56 pmol/µg PfHT and 54.37 pmol/µg PfHT and 37.47 pmol/µg PfHT
D-Glc - L-Glc Uptake, Ave ([1]; WU-1 0.001 µM): 42.8 pmol/µg PfHT
D-Glc - L-Glc Uptake, single experiments ([1]; WU-1 0.625 µM, Expt 1, Expt 2, Expt 3): 44.52 pmol/µg PfHT and 43.4 pmol/µg PfHT and 46.2 pmol/µg PfHT
D-Glc - L-Glc Uptake, Ave ([1]; WU-1 0.625 µM): 44.7 pmol/µg PfHT
D-Glc - L-Glc Uptake, single experiments ([1]; WU-1 1.25 µM, Expt 1, Expt 2, Expt 3): 39.01 pmol/µg PfHT and 40.61 pmol/µg PfHT and 38.03 pmol/µg PfHT
D-Glc - L-Glc Uptake, Ave ([1]; WU-1 1.25 µM): 39.22 pmol/µg PfHT
D-Glc - L-Glc Uptake, single experiments ([1]; WU-1 2.5 µM, Expt 1, Expt 2, Expt 3): 43.49 pmol/µg PfHT and 43.42 pmol/µg PfHT and 42.09 pmol/µg PfHT
D-Glc - L-Glc Uptake, Ave ([1]; WU-1 2.5 µM): 43 pmol/µg PfHT
D-Glc - L-Glc Uptake, single experiments ([1]; WU-1 5 µM, Expt 1, Expt 2, Expt 3): 32.42 pmol/µg PfHT and 25.14 pmol/µg PfHT and 27.92 pmol/µg PfHT
D-Glc - L-Glc Uptake, Ave ([1]; WU-1 5 µM): 28.49 pmol/µg PfHT
D-Glc - L-Glc Uptake, single experiments ([1]; WU-1 10 µM, Expt 1, Expt 2, Expt 3): 23.96 pmol/µg PfHT and 25.01 pmol/µg PfHT and 20.67 pmol/µg PfHT
D-Glc - L-Glc Uptake, Ave ([1]; WU-1 10 µM): 23.21 pmol/µg PfHT
D-Glc - L-Glc Uptake, Ave ([1]; WU-1 20 µM): 17.17 pmol/µg PfHT
D-Glc - L-Glc Uptake, single experiments ([1]; WU-1 40 µM, Expt 1, Expt 2, Expt 3): 10.91 pmol/µg PfHT and 13.9 pmol/µg PfHT and 10.43 pmol/µg PfHT
D-Glc - L-Glc Uptake, Ave ([1]; WU-1 40 µM): 11.75 pmol/µg PfHT
D-Glc - L-Glc Uptake, single experiments ([1]; WU-1 80 µM, Expt 1, Expt 2, Expt 3): 3.31 pmol/µg PfHT and 3.52 pmol/µg PfHT and 3.4 pmol/µg PfHT
D-Glc - L-Glc Uptake, Ave ([1]; WU-1 80 µM): 3.41 pmol/µg PfHT
D-Glc - L-Glc Uptake, single experiments ([1]; WU-1 160 µM, Expt 1, Expt 2, Expt 3): 4.44 pmol/µg PfHT and 4.32 pmol/µg PfHT and 4.15 pmol/µg PfHT
D-Glc - L-Glc Uptake, Ave ([1]; WU-1 160 µM): 4.3 pmol/µg PfHT
IC50 ([2]; IC50 for specific D-glucose uptake (D-glucose minus L-glucose) into PfHT liposomes, purified PfHT, zero-trans, mean): 5.9 ± 0.8 µM
IC50 ([2]; IC50 for specific D-glucose uptake into PfHT liposomes, individual experiments, Expt 1-3): 7.34 µM and 4.58 µM and 5.92 µM
D-Glc - L-Glc Uptake, Ave ([2]; 0.001 µM WU-1): 21.51 pmol/µg PfHT
D-Glc - L-Glc Uptake, individual experiments ([2]; 0.001 µM WU-1): 20.93 pmol/µg PfHT and 22.42 pmol/µg PfHT and 21.19 pmol/µg PfHT
D-Glc - L-Glc Uptake, Ave ([2]; 0.625 µM WU-1): 22.79 pmol/µg PfHT
D-Glc - L-Glc Uptake, individual experiments ([2]; 0.625 µM WU-1): 21.85 pmol/µg PfHT and 22.43 pmol/µg PfHT and 24.08 pmol/µg PfHT
D-Glc - L-Glc Uptake, Ave ([2]; 1.25 µM WU-1): 19.33 pmol/µg PfHT
D-Glc - L-Glc Uptake, individual experiments ([2]; 1.25 µM WU-1): 16.67 pmol/µg PfHT and 24.18 pmol/µg PfHT and 17.15 pmol/µg PfHT
D-Glc - L-Glc Uptake, Ave ([2]; 2.5 µM WU-1): 18.48 pmol/µg PfHT
D-Glc - L-Glc Uptake, individual experiments ([2]; 2.5 µM WU-1): 16.28 pmol/µg PfHT and 15.54 pmol/µg PfHT and 23.61 pmol/µg PfHT
D-Glc - L-Glc Uptake, Ave ([2]; 5 µM WU-1): 10 pmol/µg PfHT
D-Glc - L-Glc Uptake, individual experiments ([2]; 5 µM WU-1): 13.49 pmol/µg PfHT and 7.15 pmol/µg PfHT and 9.35 pmol/µg PfHT
D-Glc - L-Glc Uptake, Ave ([2]; 10 µM WU-1): 7.99 pmol/µg PfHT
D-Glc - L-Glc Uptake, individual experiments ([2]; 10 µM WU-1): 7.38 pmol/µg PfHT and 9.19 pmol/µg PfHT and 7.39 pmol/µg PfHT
D-Glc - L-Glc Uptake, Ave ([2]; 20 µM WU-1): 5.15 pmol/µg PfHT
D-Glc - L-Glc Uptake, individual experiments ([2]; 20 µM WU-1): 6.58 pmol/µg PfHT and 4.82 pmol/µg PfHT and 4.04 pmol/µg PfHT
D-Glc - L-Glc Uptake, Ave ([2]; 40 µM WU-1): 2.74 pmol/µg PfHT
D-Glc - L-Glc Uptake, individual experiments ([2]; 40 µM WU-1): 3.05 pmol/µg PfHT and 1.92 pmol/µg PfHT and 3.24 pmol/µg PfHT
D-Glc - L-Glc Uptake, Ave ([2]; 80 µM WU-1): -0.29 pmol/µg PfHT
D-Glc - L-Glc Uptake, individual experiments ([2]; 80 µM WU-1): 0.605 pmol/µg PfHT and -1.53 pmol/µg PfHT and 0.06 pmol/µg PfHT
D-Glc - L-Glc Uptake, Ave ([2]; 160 µM WU-1): -0.167 pmol/µg PfHT
D-Glc - L-Glc Uptake, individual experiments ([2]; 160 µM WU-1): 0.75 pmol/µg PfHT and -0.06 pmol/µg PfHT and -1.19 pmol/µg PfHT
